Measured values reported in patent publication US10774076B2, “Benzazole compounds and methods for making and using the compounds” (Rigel Pharmaceuticals, Inc., priority 2015, dated 2020).

Experiments:
[1] = test system: IL23p19; experiment: LPS Induced IL23p19 in THP-1 Cells (with IFNγ Primed) Assay; assay type: cell-based; conditions: Homo sapiens, IFNγ primed (50 ng/mL), LPS 1 ug/mL, 18 hours, 10 pt, read-out: IL23-p19 ELISA, THP1-IFNy, LPS, 10 pt EC50
Text: LPS Induced IL23p19 in THP-1 Cells (with IFNγ Primed) Assay
THP-1 Cells (ATCC, Cat # TIB-202), Dimethyl Sulfoxide (DMSO) (Sigma-Aldrich, Cat # D2650), RPMI 1640 (Cellgro, Cat #10-040-CM), Fetal Bovine Serum (Sigma, Cat # F4135), Albumin From Bovine Serum (BSA) (Sigma-Aldrich, Cat # A7906), LPS (Serotype K-235, Sigma, Product Number L 2143), IFNγ (Peprotech, Cat #300-02)
Capture antibody: Human IL-23p19 ELISA (e-Bioscience, Cat. #14-7238-85),
Detection antibody: Primary Mouse Biotinylated anti-human IL-12(p40/p70) (e-Bioscience, Cat. #13-7129-85), Secondary HRP-conjugated Streptavidin (R&D Systems, Cat # DY998), 1×PBST Washing Buffer (PBS-Tween tablet) (VWR International, Cat #80058-558), ELISA Blocking Buffer (PBS with 1% BSA), ELISA Dilution Buffer (PBS with 1% BSA), 384 Well Flat-Bottom, MaxiSorp Black Immuno Plates (Thermo Scientific, Cat #12-565-346), 384 Well Flat-Bottom, White Tissue Culture Plates (Thermo Scientific, Cat #12-565-343), Super Signal ELISA Pico Chemiluminescent Substrate (Thermo Scientific, Cat #37070), Cell Titer Glo reagent (Promega, Cat # G7573), Positive control, IKK2VI inhibitor (Calbiochem, Cat #401483), AquaMax 4000 plate washer (Molecular Devices), Luminometer, Wallac Victor2 1420 Multilabel Counter. Method THP-1 Cells Stimulation:
On day 1, 50K/well THP-1 cells were seeded and primed with IFNγ (50 ng/mL) in 384-well plates for about 18 hours in RPMI media with 10% FBS. On day 2, the compound was serially diluted in DMSO from 5 mM in 3-fold dilutions, and then diluted 1:125 in RPMI media with 10% FBS. 50 μL/well 2× compound was added to 50 μL/well THP-1 cells (with IFNγ primed) in duplicate in 384 well tissue culture plates. The cells were pre-incubated with compound for 1 hour at 37° C., 5% CO2 before addition of 10 μL/well 11×LPS to give a final concentration of 1 ug/mL LPS. Day 3, after stimulation for 18 hours at 37° C., 5% CO2, the assay plate was centrifuged and 70 μL/well supernatant was harvested. IL-23p19 protein in 70 μL/well of supernatant was measured by sandwich ELISA, and 25 μl/well Cell Titer Glo reagent was added to the remaining cells to measure compound toxicity.
Human IL-23p19 Sandwich ELISA:
Maxisorp immuno ELISA plates were pre-coated with 25 μL/well of anti-IL-23p19 capture antibody (2.5 ug/mL) in PBS overnight at room temperature. After washing with 1×PBST, the plates were blocked using 100 μL/well of 1% BSA in PBS for 2 hours at room temperature. The plates were washed three times with 1×PBST and 70 μL/well supernatant were added. The plates were incubated at room temperature for 2 hours with shaking and washed three times with 1×PBST. 25 μL/well of biotin labeled anti-IL-12(p40/p70) detection antibody (100 ng/mL) in PBS with 1% BSA was added and the plates were incubated at room temperature for 2 hours with shaking. After washing three times with 1×PBST, 25 μL/well of streptavidin-HRP (1:200) in PBS with 1% BSA was added and the plates were incubated at room temperature for 20 minutes with shaking. The plates were washed three times with 1×PBST and 25 μL/well of Super Signal ELISA Pico Chemiluminescent Substrate were added. The plates were read with a luminometer, and the chemiluminescence values were entered into Athena (Rigel) for curve fitting, EC50 calculation, and database storage.

[2] = test system: IL23-p19; experiment: Compound screening using DC cells: LPS-induced IL-23 (p19/p40) ELISA in IFNγ-primed dendritic cells differentiated from human PBMC; assay type: cell-based; conditions: Dendritic cell, human PBMC-derived dendritic cells, LPS 1 μg/ml, 18 hours, 10 pt
Method: Compound Screening Using DC Cells
Human PBMC cells (400 million) obtained from the vendor were transferred into a T-175 flask containing 15 ml RPMI media (10% FBS) and incubate for 2 hours at 37° C. After 2 hours, the media including floating cells was aspirated out carefully and 12 ml of fresh RPMI media (10% FBS) containing GMCSF (100 ng/ml) and IL4 (20 ng/ml) was added, and the flask was kept in a 37° C. incubator for 7 days.
After 3 days, fresh GMCSF (100 ng/ml) and IL4 (20 ng/ml) were added to the flask and the incubation continued. After 7 days, the fully differentiated cells were harvested by spinning down (1200 rpm/5 min) and aspirating the media. The cells were suspended in fresh RPMI media (10% FBS) containing 50 ng/ml IFNγ (1000 U/ml) and then plated (50K/well in 100 μl) onto a white clear bottom 96 well plate and left in a 37° C. incubator for 24 hours.
After 24 hours incubation, 100 μl of RPMI media was added containing 2× concentrated test compound per well to the above cell-culture media (final concentration becomes 1×) and the plates were pre-incubated for 1 hour at 37° C. before stimulating with LPS.
After 1 hour compound pre-incubation, 10 μl per well of 20× concentrated LPS solution in RPMI media was added to give a final concentration of 1 μg/ml. The mixture was shaken and incubated the plates at 37° C. for an additional 18 hours.
155 μl of the supernatant was harvested from each well carefully (without the tip touching the bottom of the well) and to the remaining 50 μl/well of the cell culture plate was added 50 μl of Cell Titer Glo reagent. The mixture was incubated for 1-2 minutes on a shaker and the plate was read for luminescence intensity to determine the compound cytotoxicity. The cell culture supernatant collected above was used to carry out IL23 ELISA (65 μl—Supernatant) and IL10 ELISA (90 μl—Supernatant) as described below.
Human IL-23 (p19/p40) ELISA Protocol (e-Biosciences)
To 10.5 ml PBS add 50 μl of anti-IL23 (p19) was added capture antibody (2.5 μg/ml). The mixture was mixed well and 100 μl of the coating solution was added to each well of the 96 well white plates from Pierce. The wells were covered and incubated overnight at 4° C.
The anti-IL23 (p19)-antibody-coated plates were washed 2× using TBST (use plate washer) and blocked using 200 μl of 0.5% Casein for 1.5-2 hours at room temperature with shaking.
The plates were washed 2× using TBST and the supernatant was transferred (65 μl/well) to the above pre-blocked/IL23(p19)-antibody-coated 96 well plate, and incubated at room temperature for 1.5 hours with shaking.
The plates were washed 4× using TBST (plate washer) and 100 μl/well detection antibody solution prepared from 2 μl of biotin labeled anti-IL-12 (p40/p70) antibody in 11 ml 1% BSA/PBS solution (I-5000 dilution) was added. The plates were incubated for 1 hour with shaking at Room temperature.
Again, the plates were washed 4× with TBST and 100 μl of HRP labeled Streptavidin (R&D Systems) solution (10 μl/10 ml 1% BSA solution) was added, and the plates were incubated at room temperature for another 45 minutes with shaking.
After 45 minutes, the plates were washed with TBST 4× and 100 ul/well Super Signal ELISA Pico Chemiluminescent Substrate from Pierce (3.5 ml A+3.5 ml B+3.5 ml MQ water) was added. The plates were shaken for 1-2 minutes then read on a plate reader.

SMILES	EC50 [1]	EC50 [2]
O=C(Nc1cc2sc(N3CCOCC3)nc2cc1N1CCCCC1)c1ccc(-c2cnc3[nH]ccc3c2)o1 [Compound I-6, N-(2-morpholino-5-(piperidin-1-yl)benzo[d]thiazol-6-yl)-5-(1H-pyrrolo[2,3-b]pyridin-5-yl)furan-2-carboxamide]	40500 nM	14000 nM
Nc1ccc(-c2ccc(C(=O)Nc3cc4sc(N5CCOCC5)nc4cc3N3CCCCC3)o2)cn1 [Compound I-5, 5-(6-aminopyridin-3-yl)-N-(2-morpholino-5-(piperidin-1-yl)benzo[d]thiazol-6-yl)furan-2-carboxamide]	432 nM	257 nM
O=C(Nc1cc2oc(N3CCOCC3)nc2cc1N1CCCCC1)c1csc(-c2cn[nH]c2)n1 [Compound I-12, N-(2-morpholino-5-(piperidin-1-yl)benzo[d]oxazol-6-yl)-2-(1H-pyrazol-4-yl)thiazole-4-carboxamide]	53.9 nM	20 nM
Cc1cc(-c2ccc(C(=O)Nc3cc4sc(N5CCOCC5)nc4cc3N3CCCCC3)o2)ccn1 [Compound I-9, 5-(2-methylpyridin-4-yl)-N-(2-morpholino-5-(piperidin-1-yl)benzo[d]thiazol-6-yl)furan-2-carboxamide]	52100 nM	897 nM
CN1CCN(c2nc3cc(N4CCCCC4)c(NC(=O)c4csc(-c5ccc(N)nc5)n4)cc3o2)CC1 [Compound I-19, 2-(6-aminopyridin-3-yl)-N-(2-(4-methylpiperazin-1-yl)-5-(piperidin-1-yl)benzo[d]oxazol-6-yl)thiazole-4-carboxamide]	938 nM	674 nM
CN1CCN(c2nc3cc(N4CCCCC4)c(NC(=O)c4ccc(-c5cn[nH]c5)o4)cc3o2)CC1 [Compound I-16, N-(2-(4-methylpiperazin-1-yl)-5-(piperidin-1-yl)benzo[d]oxazol-6-yl)-5-(1H-pyrazol-4-yl)furan-2-carboxamide]	25.8 nM	32.2 nM
Cc1cc(-c2nc(C(=O)Nc3cc4oc(N5CCN(C)CC5)nc4cc3N3CCCCC3)cs2)ccn1 [Compound I-22, N-(2-(4-methylpiperazin-1-yl)-5-(piperidin-1-yl)benzo[d]oxazol-6-yl)-2-(2-methylpyridin-4-yl)thiazole-4-carboxamide]	677 nM	3180 nM
CN1CCN(c2nc3cc(N4CCCCC4)c(NC(=O)c4csc(-c5cc[nH]n5)n4)cc3o2)CC1 [Compound I-21, N-(2-(4-methylpiperazin-1-yl)-5-(piperidin-1-yl)benzo[d]oxazol-6-yl)-2-(1H-pyrazol-3-yl)thiazole-4-carboxamide]	2180 nM	1710 nM
O=C(Nc1cc2oc(N3CCOCC3)nc2cc1N1CCC(F)CC1)c1csc(-c2cn[nH]c2)n1 [Compound I-25, N-(5-(4-fluoropiperidin-1-yl)-2-morpholinobenzo[d]oxazol-6-yl)-2-(1H-pyrazol-4-yl)thiazole-4-carboxamide]	48.2 nM	122 nM
O=C(Nc1cc2sc(N3CCOCC3)nc2cc1N1CCCCC1)c1ccc(-c2cn[nH]c2)o1 [Compound I-7, N-(2-morpholino-5-(piperidin-1-yl)benzo[d]thiazol-6-yl)-5-(1H-pyrazol-4-yl)furan-2-carboxamide]	26 nM	13.6 nM
O=C(Nc1cc2oc(N3CCOCC3)nc2cc1N1CCCCC1)c1ccc(-c2cn[nH]c2)o1 [Compound I-3, N-(2-morpholino-5-(piperidin-1-yl)benzo[d]oxazol-6-yl)-5-(1H-pyrazol-4-yl)furan-2-carboxamide]	31.4 nM	39.1 nM

The remaining lines, values ahead:

EC50 [1]	EC50 [2]	SMILES
528 nM	747 nM	O=C(Nc1cc2oc(N3CCOCC3)nc2cc1N1CCC(F)(F)CC1)c1ccc(-c2cn[nH]c2)o1 [Compound I-27, N-(5-(4,4-difluoropiperidin-1-yl)-2-morpholinobenzo[d]oxazol-6-yl)-5-(1H-pyrazol-4-yl)furan-2-carboxamide]
88.7 nM	101 nM	O=C(Nc1cc2oc(N3CCOCC3)nc2cc1N1CCCC(F)(F)C1)c1csc(-c2cn[nH]c2)n1 [Compound I-44, N-(5-(3,3-difluoropiperidin-1-yl)-2-morpholinobenzo[d]oxazol-6-yl)-2-(1H-pyrazol-4-yl)thiazole-4-carboxamide]
20 nM	37.1 nM	O=C(Nc1cc2oc(NCCN3CCOCC3)nc2cc1N1CCCCC1)c1csc(-c2cn[nH]c2)n1 [Compound I-52, N-(2-((2-morpholinoethyl)amino)-5-(piperidin-1-yl)benzo[d]oxazol-6-yl)-2-(1H-pyrazol-4-yl)thiazole-4-carboxamide]
58.5 nM	123 nM	O=C(Nc1cc2oc(N3CCOCC3)nc2cc1N1CCOCC1)c1ccc(-c2cn[nH]c2)o1 [Compound I-48, N-(2,5-dimorpholinobenzo[d]oxazol-6-yl)-5-(1H-pyrazol-4-yl)furan-2-carboxamide]
321 nM	666 nM	O=C(Nc1cc2oc(N3CCCCC3)nc2cc1N1CCCCC1)c1csc(-c2cn[nH]c2)n1 [Compound I-35, N-(2,5-di(piperidin-1-yl)benzo[d]oxazol-6-yl)-2-(1H-pyrazol-4-yl)thiazole-4-carboxamide]
